ChEMBL document CHEMBL1201862, “PubChem BioAssay data set” (2004)
Counter-ions that a name gives are not always drawn.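 Compound exposure: 48 hours, 5 concentrations, 96-well plates. Here, GI50 denotes the concentration required for 50% inhibition of growth.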 The source made the active and inactive calls. Rule as the data show it: active = GI50 up to about 1.1 µM and inactive = higher. Starred links: 1 amine or outer side, 2 acyl side, 3 side chain; linkers in the order of their positions; H or OH if unused. Residues, ends and D or L forms follow the SMILES beside them. *: point of attachment. γGlu = O=C(O)[CH](CCC(=O)[*:2])N[*:1]; NHOH = ON*

What was measured:
Assay in all cases: NCI anticancer screen, dose series, 48 h
[1] = system: RPMI-8226
[2] = system: HCC 2998
[3] = system: T47D
[4] = system: CCRF-CEM
[5] = system: SK-MEL-28
[6] = system: MDA-MB-231
[7] = system: HOP-62
[8] = system: SF-268
[9] = system: NCI-H226
[10] = system: ACHN
[11] = system: KM12
[12] = system: PC-3
[13] = system: OVCAR-8
[14] = system: EKVX
[15] = system: SK-OV-3
[16] = system: M14
[17] = system: NCI-H23
[18] = system: SK-MEL-5
[19] = system: Hs-578T
[20] = system: Malme-3M

SMILES | GI50 [1] | GI50 [2] | GI50 [3] | GI50 [4] | GI50 [5] | GI50 [6] | GI50 [7] | GI50 [8] | GI50 [9] | GI50 [10] | GI50 [11] | GI50 [12] | GI50 [13] | GI50 [14] | GI50 [15] | GI50 [16] | GI50 [17] | GI50 [18] | GI50 [19] | GI50 [20]
Nc1nc(-c2cccnc2)cc(-c2cc(-c3cccnc3)nc(N)n2)n1 | > 100 µM (inactive) | > 100 µM (inactive) | > 100 µM (inactive) | 75.2 µM (inactive) | > 100 µM (inactive) | > 100 µM (inactive) | > 100 µM (inactive) | > 100 µM (inactive) | > 100 µM (inactive) | > 100 µM (inactive) | > 100 µM (inactive) | > 100 µM (inactive) | > 100 µM (inactive) | > 100 µM (inactive) | > 100 µM (inactive) | > 100 µM (inactive) | > 100 µM (inactive) | > 100 µM (inactive) | > 100 µM (inactive) | > 100 µM (inactive)
O=[N+]([O-])c1oc2ccc3ccccc3c2c1CCO | 3.96 µM (inactive) | 0.435 µM (active) | 13.2 µM (inactive) | 3.86 µM (inactive) | 1.38 µM (inactive) | 11.1 µM (inactive) | 16.6 µM (inactive) | 5.47 µM (inactive) | 8.75 µM (inactive) | 1.58 µM (inactive) | 9.33 µM (inactive) | 13.1 µM (inactive) | 3.44 µM (inactive) | 0.447 µM (active) | 1.05 µM (active) | 1.94 µM (inactive) | 3.23 µM (inactive) | 0.546 µM (active) | 5.22 µM (inactive) | 1.78 µM (inactive)
NC(=O)c1cc2cc(Cl)cc(Cl)c2o/c1=N\c1ccc(F)cc1 | 26.5 µM (inactive) | 21.1 µM (inactive) | 18.3 µM (inactive) | 56.8 µM (inactive) | 21.9 µM (inactive) | 17.5 µM (inactive) | 27.6 µM (inactive) | 32.4 µM (inactive) | 18.6 µM (inactive) | 19.5 µM (inactive) | 26.5 µM (inactive) | 19.1 µM (inactive) | 37.6 µM (inactive) | 15.2 µM (inactive) | 22.5 µM (inactive) | 20.3 µM (inactive) | 14.7 µM (inactive) | 16.9 µM (inactive) | 35.1 µM (inactive) | 21 µM (inactive)
O=C1NC(N2CCCCC2)=N/C1=C\c1cccs1 | > 100 µM (inactive) | > 100 µM (inactive) | > 100 µM (inactive) | > 100 µM (inactive) | > 100 µM (inactive) | > 100 µM (inactive) | > 100 µM (inactive) | > 100 µM (inactive) | > 100 µM (inactive) | > 100 µM (inactive) | > 100 µM (inactive) | > 100 µM (inactive) | > 100 µM (inactive) | > 100 µM (inactive) | > 100 µM (inactive) | > 100 µM (inactive) | > 100 µM (inactive) | – | > 100 µM (inactive) | > 100 µM (inactive)
CCOC(=O)C(Cc1ccc(OC(=O)c2ccc(OC)cc2)cc1)NC(=O)C(F)(F)F (stereo not drawn) | > 100 µM (inactive) | > 100 µM (inactive) | > 100 µM (inactive) | 39.5 µM (inactive) | – | 77.6 µM (inactive) | 35.5 µM (inactive) | 35.6 µM (inactive) | > 100 µM (inactive) | 53.6 µM (inactive) | > 100 µM (inactive) | > 100 µM (inactive) | > 100 µM (inactive) | > 100 µM (inactive) | > 100 µM (inactive) | > 100 µM (inactive) | 45.2 µM (inactive) | > 100 µM (inactive) | > 100 µM (inactive) | > 100 µM (inactive)
CCN(CC)c1nc(N(C)C)c2ccccc2n1 | 13.2 µM (inactive) | 15.3 µM (inactive) | 22.9 µM (inactive) | – | 31.8 µM (inactive) | 72.4 µM (inactive) | 49.3 µM (inactive) | 52.2 µM (inactive) | 15.9 µM (inactive) | 27.9 µM (inactive) | 31.3 µM (inactive) | 26.4 µM (inactive) | 31 µM (inactive) | 10.3 µM (inactive) | 38.8 µM (inactive) | 15.6 µM (inactive) | 23.2 µM (inactive) | 15.1 µM (inactive) | 53.3 µM (inactive) | 41.1 µM (inactive)
COc1ccc(Cc2nccc3cc(OC)c(OC)cc23)cc1OC [PAPAVERINE HYDROCHLORIDE] | 36.7 µM (inactive) | 92.9 µM (inactive) | 19.5 µM (inactive) | > 100 µM (inactive) | > 100 µM (inactive) | 47.2 µM (inactive) | 43.8 µM (inactive) | > 100 µM (inactive) | 43.5 µM (inactive) | 63 µM (inactive) | > 100 µM (inactive) | 74.3 µM (inactive) | 64.9 µM (inactive) | 45.5 µM (inactive) | > 100 µM (inactive) | > 100 µM (inactive) | 19.8 µM (inactive) | 16.6 µM (inactive) | > 100 µM (inactive) | –
CCOC(=O)CNC(=O)C(CCC(=O)NO)NC(=O)CCC(N)C(=O)O (stereo not drawn) (γGlu-Glu(NHOH)-Gly-OEt; configuration not given here) | > 100 µM (inactive) | > 100 µM (inactive) | > 100 µM (inactive) | > 100 µM (inactive) | > 100 µM (inactive) | > 100 µM (inactive) | > 100 µM (inactive) | > 100 µM (inactive) | > 100 µM (inactive) | > 100 µM (inactive) | > 100 µM (inactive) | > 100 µM (inactive) | > 100 µM (inactive) | > 100 µM (inactive) | > 100 µM (inactive) | > 100 µM (inactive) | > 100 µM (inactive) | > 100 µM (inactive) | > 100 µM (inactive) | –
COc1ccc(-c2cc(-c3ccco3)c(C#N)c(=S)n2C2OC(COC(C)=O)C(OC(C)=O)C(OC(C)=O)C2OC(C)=O)cc1 (stereo not drawn) | 2.96 µM (inactive) | 14.9 µM (inactive) | 5.24 µM (inactive) | – | 3.3 µM (inactive) | 4.47 µM (inactive) | 2.61 µM (inactive) | 8.45 µM (inactive) | 5.7 µM (inactive) | 6.82 µM (inactive) | 11.9 µM (inactive) | 4.07 µM (inactive) | 3.78 µM (inactive) | 13.5 µM (inactive) | 13.8 µM (inactive) | 5.27 µM (inactive) | 9.71 µM (inactive) | 10.6 µM (inactive) | 3.15 µM (inactive) | 5.18 µM (inactive)
CCOC(OCC)C(CCc1ccccc1)c1c(N)nc(N)[nH]c1=O (stereo not drawn) | 38.6 µM (inactive) | 26.1 µM (inactive) | 68.7 µM (inactive) | 53.6 µM (inactive) | > 100 µM (inactive) | > 100 µM (inactive) | > 100 µM (inactive) | 52 µM (inactive) | 41.2 µM (inactive) | – | 66.4 µM (inactive) | 39.3 µM (inactive) | > 100 µM (inactive) | 3.76 µM (inactive) | 25.9 µM (inactive) | 80.5 µM (inactive) | 79.8 µM (inactive) | 47.6 µM (inactive) | > 100 µM (inactive) | > 100 µM (inactive)
